Read-outs that look alike come from different tables or passages of the source.
How the values were obtained:
CYP1A2 [1] = biological target: T1, CYP1A2 (Homo sapiens, UniProt P05177); settings: both, 30 min
T1 sequence (P05177 1-516): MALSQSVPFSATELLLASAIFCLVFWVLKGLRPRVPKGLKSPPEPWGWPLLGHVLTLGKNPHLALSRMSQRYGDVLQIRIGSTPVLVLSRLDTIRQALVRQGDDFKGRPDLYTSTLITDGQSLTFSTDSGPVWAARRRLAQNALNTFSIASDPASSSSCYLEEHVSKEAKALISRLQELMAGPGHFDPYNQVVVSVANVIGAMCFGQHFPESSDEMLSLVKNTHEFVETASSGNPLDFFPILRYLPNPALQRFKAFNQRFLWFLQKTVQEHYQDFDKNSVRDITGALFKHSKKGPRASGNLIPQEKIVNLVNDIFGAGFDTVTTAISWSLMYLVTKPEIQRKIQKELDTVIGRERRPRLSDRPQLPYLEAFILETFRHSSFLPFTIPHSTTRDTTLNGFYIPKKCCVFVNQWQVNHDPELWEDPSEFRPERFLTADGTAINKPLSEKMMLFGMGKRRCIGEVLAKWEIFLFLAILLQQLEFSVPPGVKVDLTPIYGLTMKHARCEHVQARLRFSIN

CYP2D6 = CYP2D6 (Homo sapiens, UniProt P10635); settings: both, 15 min
CYP2D6, sequence (P10635 whole entry): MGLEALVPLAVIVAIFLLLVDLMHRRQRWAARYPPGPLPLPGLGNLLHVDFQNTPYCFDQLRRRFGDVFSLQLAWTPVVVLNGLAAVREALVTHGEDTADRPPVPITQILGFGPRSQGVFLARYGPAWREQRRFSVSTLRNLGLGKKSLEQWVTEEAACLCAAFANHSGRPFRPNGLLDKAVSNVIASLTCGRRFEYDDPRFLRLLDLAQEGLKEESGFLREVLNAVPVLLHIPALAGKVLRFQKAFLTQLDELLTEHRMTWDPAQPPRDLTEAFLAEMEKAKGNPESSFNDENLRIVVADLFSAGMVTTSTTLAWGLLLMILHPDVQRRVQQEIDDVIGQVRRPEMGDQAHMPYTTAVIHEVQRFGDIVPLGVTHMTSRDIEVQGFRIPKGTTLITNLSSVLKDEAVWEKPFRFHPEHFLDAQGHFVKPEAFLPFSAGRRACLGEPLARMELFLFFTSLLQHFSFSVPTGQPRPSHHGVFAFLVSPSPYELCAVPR

CYP3A4 [2] = biological target: T2, CYP3A4 (Homo sapiens, UniProt P08684); settings: both, 10 min
T2 sequence (P08684 whole entry): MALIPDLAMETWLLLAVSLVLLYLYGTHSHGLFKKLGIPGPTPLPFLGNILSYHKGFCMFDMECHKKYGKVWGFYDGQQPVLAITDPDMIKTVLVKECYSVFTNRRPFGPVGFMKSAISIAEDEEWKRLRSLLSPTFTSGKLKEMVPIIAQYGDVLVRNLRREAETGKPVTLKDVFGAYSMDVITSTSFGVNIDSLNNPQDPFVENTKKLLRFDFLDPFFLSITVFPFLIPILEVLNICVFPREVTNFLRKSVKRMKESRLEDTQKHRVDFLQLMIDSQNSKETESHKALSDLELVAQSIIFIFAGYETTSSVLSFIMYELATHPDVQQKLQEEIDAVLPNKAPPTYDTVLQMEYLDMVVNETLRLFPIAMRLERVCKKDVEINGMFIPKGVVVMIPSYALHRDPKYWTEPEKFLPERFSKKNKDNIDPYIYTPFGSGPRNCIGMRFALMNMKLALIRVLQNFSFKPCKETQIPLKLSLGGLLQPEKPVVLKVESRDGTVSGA

CYP3A4 [3] = biological target: T2, CYP3A4; assay: in vitro; settings: both, microsomes
CYP2E1 [4] = biological target: T3, CYP2E1 (Homo sapiens, UniProt P05181); settings: both, 20 min
T3 sequence (P05181 whole entry): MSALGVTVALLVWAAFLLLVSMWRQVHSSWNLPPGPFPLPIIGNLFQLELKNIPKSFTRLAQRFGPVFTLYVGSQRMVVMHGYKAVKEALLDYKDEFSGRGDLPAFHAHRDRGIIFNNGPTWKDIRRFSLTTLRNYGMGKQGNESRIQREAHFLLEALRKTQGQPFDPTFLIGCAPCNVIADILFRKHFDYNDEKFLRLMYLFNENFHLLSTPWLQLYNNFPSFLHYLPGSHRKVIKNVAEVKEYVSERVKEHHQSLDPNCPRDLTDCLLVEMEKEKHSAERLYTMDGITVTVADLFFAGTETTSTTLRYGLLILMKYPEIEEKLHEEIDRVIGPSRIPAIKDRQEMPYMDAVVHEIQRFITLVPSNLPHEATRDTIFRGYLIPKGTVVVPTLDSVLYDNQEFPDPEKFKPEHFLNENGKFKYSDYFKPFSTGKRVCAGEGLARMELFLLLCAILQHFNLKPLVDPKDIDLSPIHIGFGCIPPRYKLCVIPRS

CYP2C9 [5] = biological target: T4, CYP2C9 (Homo sapiens, UniProt P11712); settings: for Tolbutamide 4-OH TB Production: both, human, 40 min
T4 sequence (P11712 whole entry, canonical isoform): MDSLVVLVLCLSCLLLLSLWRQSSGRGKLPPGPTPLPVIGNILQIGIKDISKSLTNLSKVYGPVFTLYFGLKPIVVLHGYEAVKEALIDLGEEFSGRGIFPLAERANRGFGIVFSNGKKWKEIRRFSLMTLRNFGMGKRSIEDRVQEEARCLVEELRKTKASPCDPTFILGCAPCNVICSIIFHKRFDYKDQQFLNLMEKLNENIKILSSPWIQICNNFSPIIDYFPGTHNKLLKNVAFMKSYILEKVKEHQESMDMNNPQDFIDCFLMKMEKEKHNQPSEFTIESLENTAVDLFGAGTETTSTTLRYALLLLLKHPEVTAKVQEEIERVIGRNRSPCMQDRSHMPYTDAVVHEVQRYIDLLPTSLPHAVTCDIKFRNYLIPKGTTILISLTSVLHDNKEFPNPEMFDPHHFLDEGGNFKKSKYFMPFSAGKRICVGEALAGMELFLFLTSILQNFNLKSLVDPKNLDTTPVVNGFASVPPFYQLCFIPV

CYP2E1 [6] = biological target: T3, CYP2E1; assay: Cytochrome P450 isoform inhibition in human hepatic microsomes, chlorzoxazone (Example 18); settings: 0.33 to 33.3 μM
CYP2E1 [7] = biological target: T3, CYP2E1; assay: in vitro; settings: both, microsomes
CYP2C9 [8] = biological target: T4, CYP2C9; assay: in vitro; settings: both, microsomes
CYP2A6 = biological target: T5, CYP2A6 (Homo sapiens, UniProt P11509); assay: in vitro; settings: both, microsomes
T5 sequence (P11509 1-494): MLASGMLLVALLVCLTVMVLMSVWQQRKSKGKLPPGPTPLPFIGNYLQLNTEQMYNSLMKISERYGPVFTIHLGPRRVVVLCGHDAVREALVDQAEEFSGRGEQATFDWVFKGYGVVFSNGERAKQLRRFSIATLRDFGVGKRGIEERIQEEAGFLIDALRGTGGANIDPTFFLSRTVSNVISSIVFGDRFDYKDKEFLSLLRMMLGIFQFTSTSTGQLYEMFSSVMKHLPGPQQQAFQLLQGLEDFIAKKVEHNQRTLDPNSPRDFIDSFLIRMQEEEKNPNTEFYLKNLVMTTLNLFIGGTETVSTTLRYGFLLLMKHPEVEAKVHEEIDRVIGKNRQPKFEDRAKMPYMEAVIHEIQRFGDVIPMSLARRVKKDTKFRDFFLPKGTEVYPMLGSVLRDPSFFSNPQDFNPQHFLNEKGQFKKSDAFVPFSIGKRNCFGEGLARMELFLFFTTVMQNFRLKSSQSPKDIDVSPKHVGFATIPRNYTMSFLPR

CYP2C19 = CYP2C19 (Homo sapiens, UniProt P33261); assay: Cytochrome P450 isoform inhibition in human hepatic microsomes, S-mephenytoin (Example 18); format: in vitro ADME
CYP2C19, sequence (P33261 whole entry, canonical isoform): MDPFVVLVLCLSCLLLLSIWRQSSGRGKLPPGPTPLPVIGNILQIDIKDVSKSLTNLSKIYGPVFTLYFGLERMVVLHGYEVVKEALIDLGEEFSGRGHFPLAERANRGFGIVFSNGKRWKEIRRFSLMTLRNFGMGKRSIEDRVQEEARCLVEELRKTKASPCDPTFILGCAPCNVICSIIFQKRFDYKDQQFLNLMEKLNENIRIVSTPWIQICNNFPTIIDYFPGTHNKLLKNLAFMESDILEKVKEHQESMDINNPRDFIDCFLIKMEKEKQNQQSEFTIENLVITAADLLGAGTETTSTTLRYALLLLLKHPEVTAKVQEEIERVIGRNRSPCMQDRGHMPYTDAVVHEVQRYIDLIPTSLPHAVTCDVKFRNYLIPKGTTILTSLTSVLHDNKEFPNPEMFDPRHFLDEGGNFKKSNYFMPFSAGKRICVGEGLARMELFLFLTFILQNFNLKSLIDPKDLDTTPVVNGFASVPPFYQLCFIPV

CYP1A2 [9] = biological target: T1, CYP1A2; assay: in vitro; settings: both, microsomes

O=C(O)C(Oc1cccc(C(F)(F)F)c1)c1ccc(Cl)cc1 (single isomer, unassigned; (-)) [(−) halofenic acid, (−) 4-chlorophenyl-(3-trifluoromethylphenoxy)-acetic acid]
Phenacetin AC Production (CYP1A2 [1]; 0.33 μM): 116 ± 2 pmol/mg protein/min
Phenacetin AC Production (CYP1A2 [1]; 1 μM): 118 ± 2 pmol/mg protein/min
Phenacetin AC Production (CYP1A2 [1]; 3.3 μM): 119 ± 2 pmol/mg protein/min
Phenacetin AC Production (CYP1A2 [1]; 10 μM): 119 ± 2 pmol/mg protein/min
Phenacetin AC Production (CYP1A2 [1]; 33.3 μM): 119 ± 2 pmol/mg protein/min
Dextromethorphan DEX Production (CYP2D6; 0.33 μM): 107 ± 4 pmol/mg protein/min
Dextromethorphan DEX Production (CYP2D6; 1 μM): 110 ± 2 pmol/mg protein/min
Dextromethorphan DEX Production (CYP2D6; 3.3 µM): 104 ± 3 pmol/mg protein/min
Dextromethorphan DEX Production (CYP2D6; 10 µM): 107 ± 1 pmol/mg protein/min
Dextromethorphan DEX Production (CYP2D6; 33.3 µM): 106 ± 4 pmol/mg protein/min
Testosterone 6β-OHT Production (CYP3A4 [2]; 0.33 µM): 1816 ± 12 pmol/mg protein/min
Testosterone 6β-OHT Production (CYP3A4 [2]; 1 µM): 1851 ± 14 pmol/mg protein/min
Testosterone 6β-OHT Production (CYP3A4 [2]; 3.3 µM): 1810 ± 3 pmol/mg protein/min
Testosterone 6β-OHT Production (CYP3A4 [2]; 10 µM): 1819 ± 4 pmol/mg protein/min
Testosterone 6β-OHT Production (CYP3A4 [2]; 33.3 µM): 1816 ± 6 pmol/mg protein/min
inhibition at 10 min, 0.33 µM (CYP3A4 [3]): 1.5%
inhibition at 10 min, 1 µM (CYP3A4 [3]): 0%
inhibition at 10 min, 3.3 µM (CYP3A4 [3]): 1.8%
inhibition at 10 min, 10 µM (CYP3A4 [3]): 1.3%
inhibition at 10 min, 33.3 µM (CYP3A4 [3]): 1.5%
Chlorzoxazone 6-OH CZX Production (CYP2E1 [4]; 0.33 μM): 238 ± 4 pmol/mg protein/min
Chlorzoxazone 6-OH CZX Production (CYP2E1 [4]; 1 μM): 244 ± 1 pmol/mg protein/min
Chlorzoxazone 6-OH CZX Production (CYP2E1 [4]; 3.3 μM): 239 ± 4 pmol/mg protein/min
Chlorzoxazone 6-OH CZX Production (CYP2E1 [4]; 10 μM): 244 ± 6 pmol/mg protein/min
Chlorzoxazone 6-OH CZX Production (CYP2E1 [4]; 33.3 μM): 239 ± 4 pmol/mg protein/min
IC50 for CYP2C9 in Example 18 relative to that reported in Example 7 (CYP2C9 [5]): approximately three times
Tolbutamide 4-OH TB Production (CYP2C9 [5]; 0.33 μM): 41.0 ± 0.9 pmol/mg protein/min
Tolbutamide 4-OH TB Production (CYP2C9 [5]; 1 μM): 38.6 ± 0.5 pmol/mg protein/min
Tolbutamide 4-OH TB Production (CYP2C9 [5]; 3.3 μM): 34.2 ± 0.2 pmol/mg protein/min
Tolbutamide 4-OH TB Production (CYP2C9 [5]; 10 μM): 22.7 ± 0.6 pmol/mg protein/min
Tolbutamide 4-OH TB Production (CYP2C9 [5]; 33.3 μM): 12.7 ± 0.2 pmol/mg protein/min
inhibition of CYP2E1, in words (CYP2E1 [6]): not observed
inhibition at 20 min, 0.33 μM (CYP2E1 [7]): 3%
inhibition at 20 min, 1 μM (CYP2E1 [7]): 1%
inhibition at 20 min, 3.3 μM (CYP2E1 [7]): 3%
inhibition at 20 min, 10 μM (CYP2E1 [7]): 1%
inhibition at 20 min, 33.3 μM (CYP2E1 [7]): 3%
inhibition at 40 min, 0.33 μM (CYP2C9 [8]): 5%
inhibition at 40 min, 1 μM (CYP2C9 [8]): 10%
inhibition at 40 min, 3.3 μM (CYP2C9 [8]): 21%
inhibition at 40 min, 10 μM (CYP2C9 [8]): 47%
inhibition at 40 min, 33.3 μM (CYP2C9 [8]): 71%
inhibition at 20 min, 0.33 μM (CYP2A6): -4%
inhibition at 20 min, 1 μM (CYP2A6): -2%
inhibition at 20 min, 3.3 μM (CYP2A6): 0%
inhibition at 20 min, 10 μM (CYP2A6): -3%
inhibition at 20 min, 33.3 μM (CYP2A6): -1%
inhibition at 30 min, 0.33 μM (CYP2C19; both sexes, human, pooled human hepatic microsomes, probe S-mephenytoin 50 μM, test article 0.33 μM): 4%
inhibition at 30 min, 1 μM (CYP2C19; both sexes, human, pooled human hepatic microsomes, probe S-mephenytoin 50 μM, test article 1.0 μM): 5%
inhibition at 30 min, 3.3 μM (CYP2C19; both sexes, human, pooled human hepatic microsomes, probe S-mephenytoin 50 μM, test article 3.3 μM): 15%
inhibition at 30 min, 10 μM (CYP2C19; both sexes, human, pooled human hepatic microsomes, probe S-mephenytoin 50 μM, test article 10 μM): 23%
inhibition at 30 min, 33.3 μM (CYP2C19; both sexes, human, pooled human hepatic microsomes, probe S-mephenytoin 50 μM, test article 33.3 μM): 43%
IC50 (CYP2C19; human hepatic microsomes 1 mg/mL, 50 μM S-mephenytoin, 30 minutes, read-out: IC50, 4-hydroxymephenytoin production (CYP2C19)): > 33.3 µM
inhibition at 30 min, 0.33 μM (CYP1A2 [9]): 1%
inhibition at 30 min, 1 μM (CYP1A2 [9]): 0%
inhibition at 30 min, 3.3 μM (CYP1A2 [9]): -1%
inhibition at 30 min, 10 μM (CYP1A2 [9]): -1%
inhibition at 30 min, 33.3 μM (CYP1A2 [9]): -1%

Source: patent US20040039053A1, “Use of(-) (3-halomethylphenoxy) (4-halophenyl) acetic acid derivatives for treatment of insulin resistance, type 2 diabetes, hyperlipidemia and hyperuricemia” (priority 2000, published 2004)
